From patent publication US7524853B2 (Solvay Pharmaceuticals B.V., priority 2003, dated 2009)

Key:
Format in all cases: cell-based
[1] = target: T1, 17β-hydroxysteroid dehydrogenase type 1 (17β-HSD type 1) (Homo sapiens, UniProt P14061); test: Inhibition of 17β-HSD type 1 in MCF-7 cells stably expressing the isoenzyme (tritium labeled estrone conversion, HPLC); settings: MCF7, MCF-7 cells expressing 17β-HSD type 1, 2 nM tritium labeled estrone; for inhibition at 1 µM: 1 μM test compound, read-out: % Inhibition HSD1 1 μM; for inhibition at 10 µM: 10 μM test compound, read-out: % Inhibition HSD1 10 μM
T1 construct: expressed in transfected cells; host or cells: MCF-7
T1 sequence (P14061 1-328): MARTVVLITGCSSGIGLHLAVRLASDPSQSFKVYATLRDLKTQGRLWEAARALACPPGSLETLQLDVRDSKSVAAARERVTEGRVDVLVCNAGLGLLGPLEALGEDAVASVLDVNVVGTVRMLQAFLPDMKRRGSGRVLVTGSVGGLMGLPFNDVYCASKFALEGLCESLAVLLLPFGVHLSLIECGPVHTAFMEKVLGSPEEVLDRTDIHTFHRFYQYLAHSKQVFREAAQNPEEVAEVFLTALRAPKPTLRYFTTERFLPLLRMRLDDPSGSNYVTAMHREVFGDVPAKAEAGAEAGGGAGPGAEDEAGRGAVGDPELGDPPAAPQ
Text: (§1) Biological Testing Materials and Methods 1. Inhibition of the 17β-hydroxysteroid dehydrocienase type 1, type 2 and type 3 enzyme
(§2) The compounds were screened in respect of 17β-HSD enzyme activity in vitro on established MCF-7 cell lines, each stably expressing one of the respective 17β-HSD isoenzymes. The interconversion of substrate by each isoenzyme and the 17β-HSD inhibiting activity of chemical compounds in these cell lines were detected by HPLC system.
(§3) Varying amounts of the test compounds were incubated in the growth medium of the 17β-HSD expressing cells together tritium labeled substrate (2 nM estrone for 17β-HSD type 1; 2 nM estradiol for 17β-HSD type 2; and 2 nM androstenedione for 17β-HSD type 3). The medium samples were removed after exact incubation time and the reaction is stopped by trichloroacetic acid (TCA). The samples were analyzed by HPLC-coupled flow scintillation analysis.
(§4) For each enzyme type, the HSD-inhibiting activity of an individual test compound was calculated by comparing the conversion of a control sample without any test compound (referred to as “Negative Control”) to the (reduced) conversion of the test sample containing the particular compound to be tested (referred to as “Test Sample”).
(§5) Two concentrations of each compound were used. The number of the compound refers to the numbers indicated in the Experimental Section.

[2] = target: T2, 17β-hydroxysteroid dehydrogenase type 2 (17β-HSD type 2) (Homo sapiens, UniProt P37059); test: Inhibition of 17β-HSD type 2 in MCF-7 cells stably expressing the isoenzyme (tritium labeled estradiol conversion, HPLC); settings: MCF7, MCF-7 cells expressing 17β-HSD type 2, 2 nM tritium labeled estradiol; for inhibition at 1 µM: 1 μM test compound, read-out: % Inhibition HSD2 1 μM; for inhibition at 10 µM: 10 μM test compound, read-out: % Inhibition HSD2 10 μM
T2 construct: expressed in transfected cells; host or cells: MCF-7
T2 sequence (P37059 1-387): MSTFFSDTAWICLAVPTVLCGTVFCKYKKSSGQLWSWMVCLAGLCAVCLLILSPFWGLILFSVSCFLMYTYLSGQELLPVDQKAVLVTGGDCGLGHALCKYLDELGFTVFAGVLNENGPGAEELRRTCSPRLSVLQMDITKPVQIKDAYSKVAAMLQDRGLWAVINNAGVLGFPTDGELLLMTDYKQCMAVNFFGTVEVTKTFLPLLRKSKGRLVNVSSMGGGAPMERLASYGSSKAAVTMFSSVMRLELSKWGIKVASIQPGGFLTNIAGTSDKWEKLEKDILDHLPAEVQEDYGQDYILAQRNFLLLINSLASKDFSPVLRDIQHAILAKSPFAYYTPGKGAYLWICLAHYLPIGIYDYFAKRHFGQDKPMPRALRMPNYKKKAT
Text: as §1, §2, §3, §4, §5

[3] = target: T3, 17β-hydroxysteroid dehydrogenase type 3 (17β-HSD type 3) (Homo sapiens, UniProt P37058); test: Inhibition of 17β-HSD type 3 in MCF-7 cells stably expressing the isoenzyme (tritium labeled androstenedione conversion, HPLC); settings: MCF7, MCF-7 cells expressing 17β-HSD type 3, 2 nM tritium labeled androstenedione; for inhibition at 1 µM: 1 μM test compound, read-out: % Inhibition HSD3 1 μM; for inhibition at 10 µM: 10 μM test compound, read-out: % Inhibition HSD3 10 μM
T3 construct: expressed in transfected cells; host or cells: MCF-7
T3 sequence (P37058 1-310): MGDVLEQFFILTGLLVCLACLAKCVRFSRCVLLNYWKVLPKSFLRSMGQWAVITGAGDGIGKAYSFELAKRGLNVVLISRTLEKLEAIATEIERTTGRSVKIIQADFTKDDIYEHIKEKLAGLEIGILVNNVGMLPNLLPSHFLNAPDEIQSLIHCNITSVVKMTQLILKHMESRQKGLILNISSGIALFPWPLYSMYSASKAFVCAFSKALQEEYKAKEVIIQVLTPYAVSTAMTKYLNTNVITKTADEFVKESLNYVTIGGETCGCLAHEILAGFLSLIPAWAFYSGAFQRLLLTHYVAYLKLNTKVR
Text: as §1, §2, §3, §4, §5

Compound | inhibition at 1 µM [1] [%] | inhibition at 10 µM [1] [%] | inhibition at 1 µM [2] [%] | inhibition at 10 µM [2] [%] | inhibition at 1 µM [3] [%] | inhibition at 10 µM [3] [%]
O=C1c2sc3nc(-c4cccs4)n(Cc4ccccc4)c(=O)c3c2CCC1Br (centres unmarked) | 28.5 | 23.2 | 32.8 | 48.4 | 21.8 | 25.6
CCCCn1c(-c2cccs2)nc2sc3c(c2c1=O)CCCC3 | 14.9 | 28.6 | 18.5 | 20.5 | 3.1 | 14.7
COc1cc(-c2nc3sc4c(c3c(=O)n2Cc2ccccc2)CCCC4)cc(OC)c1OC [No. 1, 3-benzyl-2-(3,4,5-trimethoxyphenyl)-5,6,7,8-tetrahydro-3H-benzo[4,5]thieno[2,3-d]pyrimidin-4-one] | 0.8 | 21.1 | 7.3 | 17.4 | -8.8 | 6.3
COc1cc(-c2nc3sc4c(c3c(=O)n2Cc2ccccc2)CCCC4=O)cc(OC)c1OC [No. 2, 3-Benzyl-2-(3,4,5-trimethoxyphenyl)-6,7-dihydro-3H,5H-benzo[4,5]thieno[2,3-d]pyrimidine-4,8-dione] | 17.3 | 58.7 | 1.5 | 33.2 | 11.7 | 40.5
COc1cc(-c2nc3sc4c(c3c(=O)n2Cc2ccccc2)CCC(C=O)=C4Cl)cc(OC)c1OC [No. 3, 3-Benzyl-8-chloro-4-oxo-2-(3,4,5-trimethoxyphenyl)-3,4,5,6-tetrahydro-benzo[4,5]thieno[2,3-d]pyrimidine-7-carbaldehyde] | 3.2 | 38.4 | -3.2 | 7.8 | -19.4 | 29.1
COc1cc(-c2nc3sc4c(c3c(=O)n2Cc2ccccc2)CCC(C=O)=C4Oc2ccccc2)cc(OC)c1OC [No. 4, 3-Benzyl-4-oxo-8-phenoxy-2-(3,4,5-trimethoxyphenyl)-3,4,5,6-tetrahydro-benzo[4,5]thieno[2,3-d]pyrimidine-7-carbaldehyde] | 20.1 | 30.7 | -4.3 | 20.1 | -7.2 | 6.5
COc1cc(-c2nc3sc4c(Oc5ccccc5)c(C=O)ccc4c3c(=O)n2Cc2ccccc2)cc(OC)c1OC [No. 5, 3-Benzyl-4-oxo-8-phenoxy-2-(3,4,5-trimethoxyphenyl)-3,4-dihydro-benzo[4,5]thieno[2,3-d]pyrimidine-7-carbaldehyde] | -1 | 26.1 | -0.9 | 17 | 9.4 | 9.1
CCSC1=C(C=O)CCc2c1sc1nc(-c3cc(OC)c(OC)c(OC)c3)n(Cc3ccccc3)c(=O)c21 [No. 6, 3-Benzyl-8-ethylsulfanyl-4-oxo-2-(3,4,5-trimethoxyphenyl)-3,4,5,6-tetrahydro-benzo[4,5]thieno[2,3-d]pyrimidine-7-carbaldehyde] | 31.8 | 44.2 | 3.8 | 29.7 | 2.1 | 47.1
CCOC1=C(C=O)CCc2c1sc1nc(-c3cc(OC)c(OC)c(OC)c3)n(Cc3ccccc3)c(=O)c21 [No. 7, 3-Benzyl-8-ethoxy-4-oxo-2-(3,4,5-trimethoxyphenyl)-3,4,5,6-tetrahydro-benzo[4,5]thieno[2,3-d]pyrimidine-7-carbaldehyde] | 12.5 | 38.4 | 8.2 | 27 | -17.6 | 5.7
COc1cc(-c2nc3sc4c(c3c(=O)n2Cc2ccccc2)CCC(C=O)=C4Sc2ccccc2)cc(OC)c1OC [No. 8, 3-Benzyl-4-oxo-8-phenylsulfanyl-2-(3,4,5-trimethoxyphenyl)-3,4,5,6-tetrahydro-benzo[4,5]thieno[2,3-d]pyrimidine-7-carbaldehyde] | 30.8 | 27.4 | 4.9 | 17.1 | 2.5 | 4.8
COc1cc(-c2nc3sc4c(Sc5ccccc5)c(C=O)ccc4c3c(=O)n2Cc2ccccc2)cc(OC)c1OC [No. 9, 3-Benzyl-4-oxo-8-phenylsulfanyl-2-(3,4,5-trimethoxyphenyl)-3,4-dihydro-benzo[4,5]thieno[2,3-d]pyrimidine-7-carbaldehyde] | 31.9 | 29.9 | -2.6 | -8.9 | 2.7 | 1.4
COc1cc(-c2nc3sc4c(c3c(=O)n2-c2ccccc2)CCCC4)cc(OC)c1OC [No. 10, 3-Phenyl-2-(3,4,5-trimethoxyphenyl)-5,6,7,8-tetrahydro-3H-benzo[4,5]thieno[2,3-d]pyrimidin-4-one] | 12.7 | 35.1 | 18.1 | 23.7 | -4.4 | 10.9
COc1cc(-c2nc3sc4c(c3c(=O)n2-c2ccccc2)CCCC4=O)cc(OC)c1OC [No. 11, 3-Phenyl-2-(3,4,5-trimethoxyphenyl)-6,7-dihydro-3H,5H-benzo[4,5]thieno[2,3-d]pyrimidine-4,8-dione] | 14.2 | 27.7 | -5.3 | 12.3 | -5.6 | 12.8
COc1ccc(-c2nc3sc4c(c3c(=O)n2Cc2ccccc2)CCCC4)cc1 [No. 12, 3-Benzyl-2-(p-methoxyphenyl)-5,6,7,8-tetrahydro-3H-benzo[4,5]thieno[2,3-d]pyrimidin-4-one] | 6.3 | 34.5 | 4.2 | 12.3 | 3.1 | 55.5
COc1cc(-c2nc3sc4ccccc4c3c(=O)n2Cc2ccccc2)c(Br)c(OC)c1OC [No. 51, 3-benzyl-2-(2-bromo-3,4,5-trimethoxyphenyl)-3H-benzo[4,5]thieno[2,3-d]pyrimidin-4-one] | 9.9 | 9.1 | 16.6 | 30.7 | – | –
COc1cc(-c2nc3sc4c(O)cccc4c3c(=O)n2CC(C)C)cc(OC)c1OC [No. 151, 8-Hydroxy-3-isobutyl-2-(3,4,5-trimethoxyphenyl)-3H-benzo[4,5]thieno[2,3-d]pyrimidin-4-one] | 21.2 | 52.7 | 14.6 | 22.1 | – | –
